Measured values from publication PMC6100189, “In Silico Docking and In Vitro Approaches towards BACE1 and Cholinesterases Inhibitory Effect of Citrus Flavanones” (Molecules : A Journal of Synthetic Chemistry and Natural …, 2018).

Key:
APP/PS1 Tg mice = conditions: oral 100 mg/kg for 10 days ref 16; cited from earlier work
rat brain = conditions: cited from earlier work
BACE1 [1] = molecular target: T1, BACE1 (Homo sapiens, UniProt P56817); assay: BACE1 inhibition assay (Invitrogen kit, Rh-[…]-Quencher substrate); format: biochemical
T1 construct: purchased Invitrogen (Pan Vera, Madison, WI, USA)
T1 sequence (P56817 46-501): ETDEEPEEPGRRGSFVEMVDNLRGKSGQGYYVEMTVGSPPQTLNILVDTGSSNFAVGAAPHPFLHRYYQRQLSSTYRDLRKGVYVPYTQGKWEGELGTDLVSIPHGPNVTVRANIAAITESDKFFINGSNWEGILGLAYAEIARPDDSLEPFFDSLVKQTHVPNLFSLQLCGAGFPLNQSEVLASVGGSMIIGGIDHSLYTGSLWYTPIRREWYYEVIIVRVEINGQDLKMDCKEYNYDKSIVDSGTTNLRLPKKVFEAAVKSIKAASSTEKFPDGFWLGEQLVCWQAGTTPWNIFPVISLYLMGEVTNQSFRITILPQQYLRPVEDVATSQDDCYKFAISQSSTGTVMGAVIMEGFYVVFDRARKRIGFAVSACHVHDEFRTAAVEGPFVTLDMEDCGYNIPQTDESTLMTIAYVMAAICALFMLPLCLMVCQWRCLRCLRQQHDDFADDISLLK
Method: (§3) The BACE1 kit from Invitrogen (Pan Vera, Madison, WI, USA) was used for the measurement of BACE1 activity. α-Secretase (tumor necrosis factor-α converting enzyme, TACE) and its fluorogenic substrate were purchased from R&D Systems (Minneapolis, MN, USA). Elastase, chymotrypsin, trypsin, and their substrates were obtained from Sigma-Aldrich.
(§4) BACE1, TACE, chymotrypsin, trypsin, and elastase assays were carried out according to previously described methods [33]. BACE1, TACE, trypsin, chymotrypsin, and elastase assays were carried out using Rh-[sequence]-Quencher, Mca-PLAQAV-Dpa-RSSSR-NH2, N-benzoyl-l-Arg-pNA, N-benzoyl-L-Tyr-pNA, and N-succinyl-Ala-Ala-Ala-pNA as substrates, respectively.

Trypsin = Trypsin inhibition assay; format: biochemical; conditions: mean ± S.E.
Method: as §3, §4

BACE1 [2] = molecular target: T1, BACE1; assay: Inhibition kinetics on BACE1 (Dixon and Lineweaver–Burk plots); format: biochemical; conditions: for Inhibition mode on BACE1: Dixon and Lineweaver–Burk plots; for Ki: Dixon plot
Method: (§1) The inhibitory constant (Ki) was obtained by interpretation of the Dixon plot, and Vmax and Km were defined by Lineweaver–Burk plots, using the initial velocities obtained over a substrate concentration range. These kinetic parameters were calculated using the Enzyme Kinetic™ module of SigmaPlot™ version 12.3 (Systat Software, Inc., San Jose, CA, USA).

APPswe/PS1dE9 Tg mice = conditions: chronic administration for 16 weeks ref 18; cited from earlier work
AChE [3] = molecular target: T2, AChE (Electrophorus electricus, UniProt O42275); assay: Inhibition kinetics on AChE (Dixon and Lineweaver–Burk plots); format: biochemical; conditions: for Inhibition mode on AChE: Dixon and Lineweaver–Burk plots; for Ki: Dixon plot
T2 construct: purchased Sigma-Aldrich (St. Louis, MO, USA)
T2 sequence (O42275 24-633): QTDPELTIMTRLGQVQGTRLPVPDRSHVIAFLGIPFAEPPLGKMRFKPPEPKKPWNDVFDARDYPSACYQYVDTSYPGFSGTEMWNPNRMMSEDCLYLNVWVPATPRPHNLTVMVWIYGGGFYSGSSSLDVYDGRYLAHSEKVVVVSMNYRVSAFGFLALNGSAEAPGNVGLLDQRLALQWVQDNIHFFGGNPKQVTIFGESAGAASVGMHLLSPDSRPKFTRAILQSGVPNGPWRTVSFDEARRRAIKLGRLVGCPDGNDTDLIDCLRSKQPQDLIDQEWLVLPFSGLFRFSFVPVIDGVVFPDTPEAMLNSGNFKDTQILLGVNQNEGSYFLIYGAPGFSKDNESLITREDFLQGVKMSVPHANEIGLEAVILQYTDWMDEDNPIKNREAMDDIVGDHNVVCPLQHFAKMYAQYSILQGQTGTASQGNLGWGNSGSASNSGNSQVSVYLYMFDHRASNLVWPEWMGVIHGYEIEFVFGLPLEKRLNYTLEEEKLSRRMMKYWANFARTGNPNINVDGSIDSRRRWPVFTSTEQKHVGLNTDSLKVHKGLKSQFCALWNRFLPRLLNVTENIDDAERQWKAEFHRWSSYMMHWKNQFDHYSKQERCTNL
Method: (§2) AChE and BChE inhibitory activities were assessed by a modified version of the Ellman colorimetric method. Each reaction mixture consisted of sodium phosphate buffer (pH 7.4), test sample solution, and either AChE (electrophorus electricus, 0.8 U/mL) or BChE (equine serum, 0.8 U/mL) solution, which was then mixed and incubated for 15 min at room temperature. Reactions were initiated upon addition of DTNB and substrate (0.75 mM).
as §1

cholinesterases = conditions: several studies ref 20, 21; cited from earlier work
AChE [4] = molecular target: T2, AChE; assay: AChE inhibition, modified Ellman colorimetric method; format: biochemical; conditions: mean ± S.E. of triplicate experiments
Method: (§5) AChE and BChE inhibitory activities were assessed by a modified version of the Ellman colorimetric method [34]. Each reaction mixture consisted of sodium phosphate buffer (pH 7.4), test sample solution, and either AChE (electrophorus electricus, 0.8 U/mL) or BChE (equine serum, 0.8 U/mL) solution, which was then mixed and incubated for 15 min at room temperature. Reactions were initiated upon addition of DTNB and substrate (0.75 mM).
All reactions were performed in 96-well plates in triplicate, and recorded using a microplate spectrophotometer (Molecular Devices, Sunnyvale, CA, USA).

[5] = molecular target: T3, α-secretase (tumor necrosis factor-α converting enzyme, TACE) (Homo sapiens, UniProt P78536); assay: TACE (α-secretase) inhibition assay; format: biochemical; conditions: mean ± S.E., read-out: Inhibitory activities (%) TACE; for inhibition at 10 µM: sample 10 μM; for inhibition at 100 µM: sample 100 μM
T3 construct: purchased R&D Systems (Minneapolis, MN, USA)
T3 sequence (P78536 215-824): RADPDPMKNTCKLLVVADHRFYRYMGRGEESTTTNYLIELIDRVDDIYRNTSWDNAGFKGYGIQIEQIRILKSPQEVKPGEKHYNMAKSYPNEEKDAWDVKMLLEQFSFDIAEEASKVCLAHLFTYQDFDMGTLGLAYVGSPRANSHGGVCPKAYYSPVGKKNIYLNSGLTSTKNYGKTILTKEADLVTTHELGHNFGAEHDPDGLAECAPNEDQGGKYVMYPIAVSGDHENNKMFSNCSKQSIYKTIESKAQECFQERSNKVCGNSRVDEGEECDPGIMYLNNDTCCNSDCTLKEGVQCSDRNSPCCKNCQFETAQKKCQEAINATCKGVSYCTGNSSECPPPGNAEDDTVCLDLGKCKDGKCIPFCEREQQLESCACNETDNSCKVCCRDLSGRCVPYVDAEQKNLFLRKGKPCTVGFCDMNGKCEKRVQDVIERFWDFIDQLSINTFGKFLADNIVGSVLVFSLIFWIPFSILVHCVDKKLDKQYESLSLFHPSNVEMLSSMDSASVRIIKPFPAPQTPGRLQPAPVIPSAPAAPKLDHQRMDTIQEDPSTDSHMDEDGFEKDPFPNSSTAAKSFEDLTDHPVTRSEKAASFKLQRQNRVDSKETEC
Method: as §3, §4

Chymotrypsin = molecular target: T4, Chymotrypsin (Bos taurus, UniProt P00766); assay: Chymotrypsin inhibition assay; format: biochemical; conditions: mean ± S.E., read-out: Inhibitory activities (%) Chymotrypsin; for inhibition at 10 µM: sample 10 μM; for inhibition at 100 µM: sample 100 μM
T4 construct: purchased Sigma-Aldrich
Method: as §3, §4

BChE [6] = molecular target: T5, BChE (Equus caballus, UniProt P81908); assay: BChE inhibition, modified Ellman colorimetric method; format: biochemical, equine; conditions: mean ± S.E. of triplicate experiments
T5 construct: BChE (equine serum, 0.8 U/mL); purchased Sigma-Aldrich (St. Louis, MO, USA); host or cells: equine serum
T5 sequence (P81908 whole entry): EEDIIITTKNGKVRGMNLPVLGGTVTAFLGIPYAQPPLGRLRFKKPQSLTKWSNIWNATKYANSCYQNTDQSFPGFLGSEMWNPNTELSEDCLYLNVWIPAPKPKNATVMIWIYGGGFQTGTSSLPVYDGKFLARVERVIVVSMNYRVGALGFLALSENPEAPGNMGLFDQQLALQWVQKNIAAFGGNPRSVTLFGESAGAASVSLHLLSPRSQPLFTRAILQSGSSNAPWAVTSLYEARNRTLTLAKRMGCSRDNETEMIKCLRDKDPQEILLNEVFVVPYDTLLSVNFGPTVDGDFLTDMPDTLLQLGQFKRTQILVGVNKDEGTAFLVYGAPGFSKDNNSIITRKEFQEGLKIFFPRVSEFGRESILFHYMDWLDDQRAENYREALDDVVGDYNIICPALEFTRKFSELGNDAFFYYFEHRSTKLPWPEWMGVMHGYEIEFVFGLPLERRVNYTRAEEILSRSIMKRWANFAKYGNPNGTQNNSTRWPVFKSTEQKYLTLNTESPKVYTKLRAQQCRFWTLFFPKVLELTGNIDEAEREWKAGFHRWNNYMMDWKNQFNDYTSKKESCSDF
Method: as §5
Enzymatic hydrolysis, mediated by AChE or BChE, was monitored according to the formation of yellow 5-thio-2-nitrobenzoate anions at 405 nm for 15 min, which were produced by the reaction of DTNB with thiocholine released from ACh or BCh. All reactions were performed in 96-well plates in triplicate, and recorded using a microplate spectrophotometer (Molecular Devices, Sunnyvale, CA, USA).

Elastase = molecular target: T6, Elastase (Sus scrofa, UniProt P00772); assay: Elastase inhibition assay; format: biochemical; conditions: mean ± S.E., read-out: Inhibitory activities (%) Elastase; for inhibition at 10 µM: sample 10 μM; for inhibition at 100 µM: sample 100 μM
T6 construct: purchased Sigma-Aldrich
T6 sequence (P00772 27-266): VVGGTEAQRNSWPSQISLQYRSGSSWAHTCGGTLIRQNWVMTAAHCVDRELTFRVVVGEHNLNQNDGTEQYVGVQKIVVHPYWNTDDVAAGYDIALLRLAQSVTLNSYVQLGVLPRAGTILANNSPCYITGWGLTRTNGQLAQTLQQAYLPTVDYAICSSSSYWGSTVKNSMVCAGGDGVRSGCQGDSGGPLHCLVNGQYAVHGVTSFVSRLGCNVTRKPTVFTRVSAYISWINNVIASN
Method: as §3, §4

BChE [7] = molecular target: T5, BChE; assay: Inhibition kinetics on BChE (Dixon and Lineweaver–Burk plots); format: biochemical, equine
Method: as §2, §1

brains of rats = conditions: pre-administration 40 mg/kg, oral; no reference given; cited from earlier work
[8] = system: ECV304/C6 co-culture model; conditions: in vitro ECV304/C6 co-culture model ref 27; cited from earlier work
mice = conditions: orally 4.5 mg/kg body weight of mice ref 23; cited from earlier work
AChE [9] = conditions: previous study ref 19; read-out: IC50 against AChE; cited from earlier work

Q: What does the source list for COc1ccc([C@@H]2CC(=O)c3c(O)cc(O[C@@H]4O[C@H](CO[C@@H]5O[C@@H](C)[C@H](O)[C@@H](O)[C@H]5O)[C@@H](O)[C@H](O)[C@H]4O)cc3O2)cc1O [Hesperidin, hesperidin]?
A: Neuroprotective effect in APP/PS1 Tg mice (APP/PS1 Tg mice): recovered microglial activation, APP expression, Aβ deposition, and behavioral dysfunction; Presence in brain homogenates (rat brain; systemic administration of hesperidin to rats ref 30): presence of hesperidin was confirmed by brain homogenates; IC50 (BACE1 [1]): 17 ± 1.25 µM; Inhibitory activities (%) Trypsin (Trypsin; sample 10 μM): 2.27 ± 0.30%; Inhibitory activities (%) Trypsin (Trypsin; sample 100 μM): 1.41 ± 0.22%; Inhibition mode on BACE1 (BACE1 [2]): noncompetitive inhibition; Ki (BACE1 [2]): 39.4 µM; Effect of chronic administration in APPswe/PS1dE9 Tg mice (APPswe/PS1dE9 Tg mice): attenuated oxidative damage, increased anti-oxidative defense, and alleviated cognitive impairment; Inhibition mode on AChE (AChE [3]): noncompetitive inhibition; Ki (AChE [3]): 21.4 µM; Inhibitory activity against cholinesterases (cholinesterases): low inhibitory activity; IC50 (AChE [4]): 22.8 ± 2.78 µM; inhibition at 10 µM [5]: 8.53 ± 1.05%; inhibition at 100 µM [5]: 9.19 ± 1.2%; inhibition at 10 µM (Chymotrypsin): 3.19 ± 0.28%; inhibition at 100 µM (Chymotrypsin): 4.11 ± 0.34%; IC50 (BChE [6]): 48.1 ± 0.74 µM; inhibition at 10 µM (Elastase): 6.91 ± 0.83%; inhibition at 100 µM (Elastase): 6 ± 1.33%; Inhibition mode on BChE (BChE [7]; Dixon and Lineweaver–Burk plots): noncompetitive inhibition; Ki (BChE [7]; Dixon plot): 93.6 µM

Q: For COc1ccc(C2CC(=O)c3c(O)cc(O)cc3O2)cc1O (stereo not drawn) [Hesperetin, 4′-methoxy-3′,5,7-trihydroxyflavanone], which “Presence in the rat brain” value (rat brain; after oral administration of hesperidin ref 31) is on record?
A: The value was “detected in the rat brain”.

Q: And the “Presence in the striatum of rat brains” value (rat brain; intravenous 50 mg/kg ref 29)?
A: Its value is “detected in the striatum of rat brains”.

Q: What about the “Effect on cadmium-induced damage in the brains of rats” value (brains of rats) of the same molecule?
A: The value was “significantly attenuated cadmium-induced oxidative stress and mitochondrial dysfunction”.

Q: What about the IC50 (BACE1 [1]) of the same molecule?
A: The IC50 was 22.1 ± 1.81 µM.

Q: And the “Inhibitory activities (%) Trypsin” value (Trypsin; sample 10 μM)?
A: Its value is 5.31 ± 0.39%.

Q: What about the “Inhibitory activities (%) Trypsin” value (Trypsin; sample 100 μM) of the same molecule?
A: The value was 4.72 ± 0.45%.

Q: What about the “Inhibition mode on BACE1” value (BACE1 [2]) of the same molecule?
A: Its value is “noncompetitive inhibition”.

Q: And the Ki (BACE1 [2])?
A: Its Ki is 42.7 µM.

Q: And the “Inhibition mode on AChE” value (AChE [3])?
A: Its value is “noncompetitive inhibition”.

Q: And the Ki (AChE [3])?
A: Its Ki is 53.9 µM.

Q: And the “Inhibitory activity against cholinesterases” value (cholinesterases)?
A: The value was “low inhibitory activity”.

Q: And the IC50 (AChE [4])?
A: Its IC50 is 45.7 ± 2.69 µM.

Q: What about the BBB crossing [8] of the same molecule?
A: Its BBB crossing is “cross the BBB”.

Q: And the inhibition at 10 µM [5]?
A: The inhibition at 10 µM was 8.66 ± 0.7%.

Q: What about the inhibition at 100 µM [5] of the same molecule?
A: Its inhibition at 100 µM is 11.3 ± 1.37%.

Q: What about the inhibition at 10 µM (Chymotrypsin) of the same molecule?
A: Its inhibition at 10 µM is 4.91 ± 1.4%.

Q: What about the inhibition at 100 µM (Chymotrypsin) of the same molecule?
A: Its inhibition at 100 µM is 9.21 ± 0.33%.

Q: And the IC50 (BChE [6])?
A: Its IC50 is over 100 µM.

Q: What about the inhibition at 10 µM (Elastase) of the same molecule?
A: Its inhibition at 10 µM is 4.84 ± 0.46%.

Q: What about the inhibition at 100 µM (Elastase) of the same molecule?
A: The inhibition at 100 µM was 9.95 ± 1.28%.

Q: Which “Presence in cerebral cortexes of rats” value (rat brain; intravenous naringenin 20 mg/kg ref 28) does the source give for O=C1CC(c2ccc(O)cc2)Oc2cc(O)cc(O)c21 (stereo not drawn) [Naringenin] here?
A: The value was “identified”.

Q: What about the IC50 (BACE1 [1]) of the same molecule?
A: Its IC50 is 30.3 ± 2.06 µM.

Q: And the “Inhibitory activities (%) Trypsin” value (Trypsin; sample 10 μM)?
A: Its value is 7.80 ± 1.25%.

Q: What about the “Inhibitory activities (%) Trypsin” value (Trypsin; sample 100 μM) of the same molecule?
A: Its value is 5.84 ± 0.75%.

Q: What about the “Effect on scopolamine-induced amnesia” value (mice) of the same molecule?
A: The value was “significantly mitigated scopolamine-induced amnesia”.

Q: What about the “Inhibition mode on BACE1” value (BACE1 [2]) of the same molecule?
A: Its value is “noncompetitive inhibition”.

Q: And the Ki (BACE1 [2])?
A: The Ki was 47.1 µM.

Q: What about the “Inhibition mode on AChE” value (AChE [3]) of the same molecule?
A: The value was “noncompetitive inhibition”.

Q: And the Ki (AChE [3])?
A: The Ki was 45.4 µM.

Q: And the IC50 (AChE [4])?
A: The IC50 was 42.7 ± 4.3 µM.

Q: And the BBB crossing [8]?
A: The BBB crossing was “cross the BBB”.

Q: And the inhibition at 10 µM [5]?
A: Its inhibition at 10 µM is 5.15 ± 0.98%.

Q: What about the inhibition at 100 µM [5] of the same molecule?
A: The inhibition at 100 µM was 6.95 ± 1.52%.

Q: And the inhibition at 10 µM (Chymotrypsin)?
A: The inhibition at 10 µM was 8.77 ± 0.74%.

Q: And the inhibition at 100 µM (Chymotrypsin)?
A: Its inhibition at 100 µM is 6.88 ± 0.89%.

Q: What about the IC50 (BChE [6]) of the same molecule?
A: Its IC50 is over 100 µM.

Q: What about the inhibition at 10 µM (Elastase) of the same molecule?
A: Its inhibition at 10 µM is 9.74 ± 0.41%.

Q: What about the inhibition at 100 µM (Elastase) of the same molecule?
A: Its inhibition at 100 µM is 10.5 ± 1.17%.

Q: With COc1cc(O[C@@H]2O[C@H](CO[C@@H]3O[C@H](CO)[C@@H](O)[C@H](O)[C@H]3O)[C@@H](O)[C@H](O)[C@H]2O)c2c(O)c3c(=O)cc(C)oc3cc2c1 [Rubrofusarin-6-O-β-D-gentiobioside] as the molecule, how does the IC50 (AChE [9]) read?
A: Its IC50 is 15.9 ± 0.32 µM.
